Source: the supplement of paper PMC10307832

How the values were obtained:
Test in all cases: relative viability (nuclei count vs DMSO), 5 days (fraction); higher = more cells survive
Nelarabine + Crizotinib = compound: COc1nc(N)nc2c1ncn2[C@@H]1O[C@H](CO)[C@@H](O)[C@@H]1O [Nelarabine] + C[C@@H](Oc1cc(-c2cnn(C3CCNCC3)c2)cnc1N)c1c(Cl)ccc(F)c1Cl [Crizotinib] (partner 1 µM)
How it was run: (§1)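 One day after seeding in 1536-well plates, lung cancer cell lines were dosed by pin tool. Dosing was either single-drug or a fixed anchor-drug dose plus five library-drug doses (not always all listed) in √10 steps. After 5 days, nuclei were stained in one fix-and-stain step and counted on 4× images, and relative viability is the nuclei count of treated wells over that of vehicle wells, given as the median of duplicate plates.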

Nelarabine + Foretinib = compound: COc1nc(N)nc2c1ncn2[C@@H]1O[C@H](CO)[C@@H](O)[C@@H]1O [Nelarabine] + COc1cc2c(Oc3ccc(NC(=O)C4(C(=O)Nc5ccc(F)cc5)CC4)cc3F)ccnc2cc1OCCCN1CCOCC1 [Foretinib] (partner 0.25 µM)
How it was run: as §1

Adavosertib + AZD7762 = compound: C=CCn1c(=O)c2cnc(Nc3ccc(N4CCN(C)CC4)cc3)nc2n1-c1cccc(C(C)(C)O)n1 [Adavosertib] + NC(=O)Nc1cc(-c2cccc(F)c2)sc1C(=O)N[C@H]1CCCNC1 [AZD7762] (partner 0.2 µM)
How it was run: as §1

Adavosertib + Vorinostat = compound: C=CCn1c(=O)c2cnc(Nc3ccc(N4CCN(C)CC4)cc3)nc2n1-c1cccc(C(C)(C)O)n1 [Adavosertib] + O=C(CCCCCCC(=O)Nc1ccccc1)NO [Vorinostat] (partner 1 µM)
How it was run: as §1

Row | Cell Line | relative viability (Nelarabine + Crizotinib; first compound 0.01 µM) | relative viability (Nelarabine + Crizotinib; first compound 0.03162 µM) | relative viability (Nelarabine + Crizotinib; first compound 0.1 µM) | relative viability (Nelarabine + Crizotinib; first compound 0.3162 µM) | relative viability (Nelarabine + Crizotinib; first compound 1 µM) | relative viability (Nelarabine + Foretinib; first compound 0.01 µM) | relative viability (Nelarabine + Foretinib; first compound 0.1 µM) | relative viability (Nelarabine + Foretinib; first compound 0.3162 µM) | relative viability (Nelarabine + Foretinib; first compound 1 µM) | relative viability (Adavosertib + AZD7762; first compound 0.01 µM) | relative viability (Adavosertib + AZD7762; first compound 0.03162 µM) | relative viability (Adavosertib + AZD7762; first compound 0.1 µM) | relative viability (Adavosertib + AZD7762; first compound 0.3162 µM) | relative viability (Adavosertib + Vorinostat; first compound 0.01 µM) | relative viability (Adavosertib + Vorinostat; first compound 0.03162 µM) | relative viability (Adavosertib + Vorinostat; first compound 0.1 µM) | relative viability (Adavosertib + Vorinostat; first compound 0.3162 µM) | relative viability (Nelarabine + Foretinib; first compound 0.03162 µM)
1 | NCI-H2347 | 0.812 | 0.547 | 0.654 | 0.649 | 0.833 | 0.838 | 0.528 | 0.65 | 0.89 | 0.791 | 0.674 | 0.476 | 0.329 | 0.548 | 0.71 | 0.615 | 0.533 | 
2 | NCI-H3122 | 0.265 | 0.197 |  | 0.301 | 0.268 | 1.11 |  | 1.05 | 0.962 | 0.998 | 0.829 | 0.963 | 0.511 | 0.991 | 0.942 | 0.857 | 0.992 | 0.771
3 | HCC-15 | 1.01 | 0.782 | 0.86 | 0.97 | 0.887 | 1.16 | 0.983 | 1.12 | 0.992 | 1.1 | 1.28 | 1.57 | 1.14 | 0.908 | 0.823 | 0.86 | 0.829 | 0.996
4 | HCC-78 | 0.379 | 0.365 |  | 0.34 | 0.338 | 0.607 |  | 0.527 | 0.617 | 0.512 | 0.603 | 0.564 | 0.368 | 0.492 | 0.437 | 0.473 | 0.42 | 0.538
5 | A549 | 0.735 | 0.666 | 0.742 | 0.803 | 0.671 | 1.11 | 0.972 | 1.01 | 0.98 |  |  |  |  |  |  |  |  | 0.853
6 | PC-3 [JPC-3] | 1.15 | 1.02 | 1.01 | 0.977 | 0.968 | 1.14 | 1.04 | 1.03 | 1.09 |  | 0.757 | 0.777 | 0.709 |  | 0.756 | 0.621 | 0.753 | 0.99
7 | NCI-H1395 |  |  |  |  |  | 1.07 | 1.08 | 1.01 | 1.01 | 0.377 | 0.354 | 0.345 | 0.316 | 0.595 | 0.759 | 0.619 | 0.504 | 0.923
8 | SK-MES-1 | 1.07 | 0.922 | 0.961 | 1.05 | 1.1 | 1.07 | 0.946 | 0.949 | 1.18 |  |  |  |  | 1.09 | 1.06 | 0.778 | 0.348 | 0.932
9 | CAL-12T | 0.517 | 0.514 | 0.61 | 0.806 | 0.549 | 1.3 | 1.15 | 1.09 | 1.04 | 0.569 | 0.41 | 0.427 | 0.232 | 0.797 | 0.889 | 0.821 | 0.741 | 1.14
10 | LCLC-97TM1 | 0.481 | 0.364 | 0.199 | 0.401 | 0.383 | 0.996 | 1.01 | 0.922 | 0.935 | 0.289 | 0.264 | 0.138 | 0.0845 | 0.809 | 0.71 | 0.77 | 0.573 | 0.792
11 | HOP-62 | 1.08 | 0.933 | 0.998 | 0.91 | 0.831 | 1.08 | 1.12 | 1.05 | 1.05 | 0.697 | 0.382 | 0.364 | 0.116 | 0.689 | 0.653 | 0.733 | 0.62 | 1
12 | NCI-H1703 | 0.577 | 0.701 | 0.78 | 1.01 | 0.594 | 0.388 | 0.332 | 0.289 | 0.395 | 0.105 | 0.13 | 0.122 | 0.118 |  |  |  |  | 0.405
13 | NCI-H596 | 0.948 | 1.15 | 0.96 | 1.04 | 1.12 | 0.829 | 0.773 | 0.848 | 0.84 | 1.04 | 1.05 | 0.844 | 0.751 | 0.691 | 0.637 | 0.613 | 0.415 | 0.917
14 | NCI-H2126 | 1.19 | 1.07 | 1.01 | 1.05 | 0.998 | 1.24 | 1.18 | 1.41 | 1.08 | 0.962 | 1.03 | 0.949 | 0.788 | 0.738 | 0.759 | 0.781 | 0.789 | 1.13
15 | NCI-H2087 | 1.22 | 0.965 | 0.88 | 0.819 | 0.84 | 1.43 | 1.06 | 1.01 | 1.11 | 1.37 | 1.21 | 1.3 | 1.03 | 0.812 | 0.637 | 0.702 | 0.826 | 0.917
16 | NCI-H1355 | 1.44 | 0.879 | 1.02 | 1.15 | 1.08 | 1.05 | 0.947 | 1 | 1.03 | 0.734 | 0.599 | 0.406 | 0.307 | 0.609 | 0.649 | 0.679 | 0.568 | 0.984
17 | EBC-1 | 0.157 | 0.178 | 0.182 | 0.235 | 0.194 | 0.122 | 0.146 | 0.0922 | 0.105 |  |  |  |  |  |  |  |  | 0.111
18 | ABC-1 | 1.07 | 1.09 | 0.994 | 1.14 | 0.976 | 1.11 | 0.931 | 1.05 | 0.94 | 0.87 | 0.706 | 0.623 | 0.802 | 1.17 | 1.26 | 1.1 | 1.44 | 0.862
19 | NCI-H358 | 0.58 | 0.481 | 0.4 | 0.573 | 0.514 | 0.854 | 0.622 | 0.854 | 0.762 | 0.486 | 0.488 | 0.329 | 0.234 | 0.622 | 0.597 | 0.637 | 0.219 | 0.666
20 | NCI-H520 | 0.607 | 0.519 | 0.871 | 1.07 | 0.851 | 1.06 | 0.95 | 0.789 | 0.676 |  |  |  |  | 0.756 | 0.734 | 0.681 | 0.59 | 0.799
